Patent publication US20080021044A1 (priority 2006, published 2008)

Experiment: Solubility of the compound of formula (I) as a function of time in aqueous solvents (HPLC)
Type: physicochemical
Conditions: thermodynamic from solid; for solubility at 1 h / solubility at 2 h / solubility at 4 h / solubility at 24 h / solubility at 48 h / solubility at 0.5 h: 25° C. water bath, agitated; for solubility at 0.5 h: ½ hr; for solubility at 7 days: kept at room temperature with no agitation
Procedure: The sample vials were pulled out at each time point, the pH was measured and the sample was filtered a 0.45 μm PTFE membrane filter. The filtrate was appropriately diluted with the dilution solvent and the concentration of the compound was measured using HPLC. HPLC conditions were as follows: Method: Isocratic method, 70% mobile phase A −30% mobile phase B; Column: Supelco Discovery HS-C18, 3 μm, 4.6×150mm; Mobile Phase A: 0.05% TFA in water; B: 0.05% TFA in acetonitrile; Flow rate: 1.0 mL/min; Detection: UV: Wavelength: 240 nm, bandwidth 4 nm; Reference wavelength: 450 nm, bandwidth 80 nm; Run time: 6 min; Injection volume: 10 μL.

[1] = aqueous buffer, 0.1N NaOH (pH ˜12.8)
[2] = aqueous buffer, borate buffer pH 8
[3] = aqueous buffer, borate buffer pH 10
[4] = aqueous buffer, citrate buffer pH 2
[5] = aqueous buffer, citrate buffer pH 4
[6] = aqueous buffer, citrate buffer pH 6
[7] = simulated gastric fluid, 0.1N HCl
[8] = simulated intestinal fluid (SIF), fassgf or other biorelevant, SIF (pH ˜6.75)

Q: For `Cc1cnc(NCC(F)(F)c2ccccc2)c(=O)n1CC(=O)NCCONC(=N)N` [compound of formula (I), N-[2-[[(diaminomethylene)amino]oxy]ethyl]-3-[(2,2-difluoro-2-phenylethyl)amino]-6-methyl-2-oxo-1(2H)-pyrazineacetamide], which solubility at 1 h [1] is on record?
A: 980 µg/mL

Q: What about the solubility at 2 h [1] of the same compound?
A: 980 µg/mL

Q: And the solubility at 4 h [1]?
A: 1000 µg/mL

Q: And the solubility at 24 h [1]?
A: 1000 µg/mL

Q: What about the solubility at 48 h [1] of the same compound?
A: 990 µg/mL

Q: And the solubility at 0.5 h [1]?
A: 920 µg/mL

Q: What about the solubility at 4 h [2] of the same compound?
A: 1300 µg/mL

Q: What about the solubility at 24 h [2] of the same compound?
A: 1200 µg/mL

Q: And the solubility at 48 h [2]?
A: 1200 µg/mL

Q: And the solubility at 4 h [3]?
A: 1000 µg/mL

Q: What about the solubility at 24 h [3] of the same compound?
A: 1000 µg/mL

Q: And the solubility at 48 h [3]?
A: 1000 µg/mL

Q: And the solubility at 1 h [4]?
A: 8700 µg/mL

Q: And the solubility at 2 h [4]?
A: 8800 µg/mL

Q: What about the solubility at 4 h [4] of the same compound?
A: 10400 µg/mL

Q: And the solubility at 24 h [4]?
A: 6900 µg/mL

Q: And the solubility at 48 h [4]?
A: 7500 µg/mL

Q: And the solubility at 7 days [4]?
A: 4000 µg/mL

Q: What about the solubility at 0.5 h [4] of the same compound?
A: 7600 µg/mL

Q: And the solubility at 1 h [5]?
A: 2400 µg/mL

Q: What about the solubility at 2 h [5] of the same compound?
A: 2800 µg/mL

Q: What about the solubility at 4 h [5] of the same compound?
A: 2500 µg/mL

Q: What about the solubility at 24 h [5] of the same compound?
A: 2700 µg/mL

Q: And the solubility at 48 h [5]?
A: 2700 µg/mL

Q: And the solubility at 0.5 h [5]?
A: 2100 µg/mL

Q: And the solubility at 1 h [6]?
A: 1800 µg/mL

Q: And the solubility at 2 h [6]?
A: 1800 µg/mL

Q: What about the solubility at 4 h [6] of the same compound?
A: 2000 µg/mL

Q: And the solubility at 24 h [6]?
A: 1600 µg/mL

Q: And the solubility at 48 h [6]?
A: 1500 µg/mL

Q: What about the solubility at 7 days [6] of the same compound?
A: 1300 µg/mL

Q: What about the solubility at 0.5 h [6] of the same compound?
A: 2100 µg/mL

Q: What about the solubility at 1 h [7] of the same compound?
A: 40200 µg/mL

Q: And the solubility at 2 h [7]?
A: 40900 µg/mL

Q: And the solubility at 4 h [7]?
A: 43000 µg/mL

Q: And the solubility at 24 h [7]?
A: 40400 µg/mL

Q: And the solubility at 48 h [7]?
A: 39200 µg/mL

Q: What about the solubility at 7 days [7] of the same compound?
A: 26900 µg/mL

Q: And the solubility at 0.5 h [7]?
A: 31600 µg/mL

Q: And the solubility (simulated intestinal fluid (SIF), 25 °C, pH 6.75, fassgf or other biorelevant)?
A: 2700 to 2800 µg/mL

Q: And the solubility at 4 h [8]?
A: 2800 µg/mL

Q: And the solubility at 24 h [8]?
A: 2700 µg/mL

Q: What about the solubility at 48 h [8] of the same compound?
A: 2700 µg/mL

Q: What about the solubility at 4 h (water (pH ˜9)) of the same compound?
A: 1100 µg/mL

Q: And the solubility at 24 h (water (pH ˜9))?
A: 1100 µg/mL

Q: And the solubility at 48 h (water (pH ˜9))?
A: 1100 µg/mL
